# Assay results from patent publication US9458480B2, “Microorganisms and methods for the biosynthesis of adipate, hexamethylenediamine and 6-aminocaproic acid” (GENOMATICA, INC., priority 2009, dated 2016).
# B1: paaJ: β-ketothiolase paaJ from Escherichia coli, His-tagged, purified (protein, UniProt P0C7L2 1-401, looked up)
# 3-oxoadipyl-CoA/3-oxo-5,6-dehy …: MREAFICDGIRTPIGRYGGALSSVRADDLAAIPLRELLVRNPRLDAECIDDVILGCANQAGEDNRNVARMATLLAGLPQSVSGTTINRLCGSGLDALGFAARAIKAGDGDLLIAGGVESMSRAPFVMGKAASAFSRQAEMFDTTIGWRFVNPLMAQQFGTDSMPETAENVAELLKISREDQDSFALRSQQRTAKAQSSGILAEEIVPVVLKNKKGVVTEIQHDEHLRPETTLEQLRGLKAPFRANGVITAGNASGVNDGAAALIIASEQMAAAQGLTPRARIVAMATAGVEPRLMGLGPVPATRRVLERAGLSIHDMDVIELNEAFAAQALGVLRELGLPDDAPHVNPNGGAIALGHPLGMSGARLALAASHELHRRNGRYALCTMCIGVGQGIAMILERV
# modifications: His-tag
# notes: β-ketothiolase paaJ from Escherichia coli, His-tagged, purified
# B2: pcaF from Pseudomonas putida KT2440: β-ketothiolase pcaF from Pseudomonas putida KT2440 (protein, UniProt Q51956 1-400, looked up)
# Beta-ketoadipyl-CoA thiolase: MRDVFICDAIRTPIGRFGGALAGVRADDLAAVPLKALIEPNPAVQWDQVDEVFFGCANQAGEDNRNVARMALLLAGLPESIPGVTLNRLCASGMDAIGTAFRAIASGEMELAIAGGVESMSRAPFVMGKAESGYSRNMKLEDTTIGWRFINPLMKSQYGVDSMPETADNVADDYQVSRADQDAFALRSQQKAAAAQAAGFFAEEIVPVRIAHKKGETIVERDEHLRPETTLEALTKLKPVNGPDKTVTAGNASGVNDGAAALILASAEAVKKHGLTPRARVLGMASGGVAPRVMGIGPVPAVRKLTERLGVAVSDFDVIELNEAFASQGLAVLRELGVADDAPQVNPNGGAIALGHPLGMSGARLVLTALHQLEKSGGRKGLATMCVGVGQGLALAIERV
# B3: pcaF from Pseudomonas aeruginosa PAO1: β-ketothiolase pcaF from Pseudomonas aeruginosa PAO1 (protein, UniProt Q9I6R0 1-401, looked up)
# Beta-ketoadipyl-CoA thiolase: MSREVFICDAVRTPIGRFGGSLSAVRADDLAAVPLKALVERNPGVDWSALDEVFLGCANQAGEDNRNVARMALLLAGLPESVPGVTLNRLCASGMDAIGTAFRAIACGEMELAIAGGVESMSRAPYVMGKADSAFGRGQKIEDTTIGWRFVNPLMKEQYGIDPMPQTADNVADDYRVSRADQDAFALRSQQRAGRAQEAGFFAEEIVPVTIRGRKGDTLVEHDEHPRPDTTLEALARLKPVNGPEKTVTAGNASGVNDGAAALVLASAEAVEKHGLTPRARVLGMASAGVAPRIMGIGPVPAVRKLLRRLDLAIDAFDVIELNEAFASQGLACLRELGVADDSEKVNPNGGAIALGHPLGMSGARLVLTALHQLEKSGGRRGLATMCVGVGQGLALAIERV
# Assays:
# [1] = target: Lysine decarboxylase (EC 4.1.1.18) (Escherichia coli, UniProt P0A9H3); conditions: E. coli enzyme; cited from earlier work
# E. coli [2] = test: Ethanol production (metabolic activity) of E. coli cultures exposed to 6-ACA; type: cell-based, Escherichia coli; conditions: resuspended cultures, overnight growth
# Method: Midlog or early stationary cells were spun down and resuspended in fresh M9-Glucose medium with various concentrations of 6-ACA. After overnight growth, cultures were measured for growth by measuring OD600 and metabolic activity assayed by ethanol production.
# (§1) E. coli was assayed for tolerance, metabolic activity and growth during exposure to various concentrations of 6-aminocaproate (6-ACA). Aerobically, cultures were able to grow media with up to 10% 6-ACA, while anaerobic cultures could grow in media with approximately 6% 6-ACA (FIG. 15). Because the pathway for producing 6-ACA could require anaerobic conditions, all other further testing was performed under anaerobic conditions. To assay tolerance, cultures were grown anaerobically to mid-log(0.3 OD) and early stationary phase (0.6 OD), the cells were spun down and resuspended in medium containing various concentrations of 6-ACA. The cultures were grown in capped microfuge tubes, grown overnight and the ODs of the cultures were assayed (FIG. 16). Under these conditions, cultures were able to grow (double at least 1 time) in up to 10% 6-ACA. The additional tolerance could have been from the additional glucose from resuspending the cultures in fresh M9-glucose medium or from limited oxygen that was present in the capped microfuge tube. […]
# E. coli [3] = test: Growth of E. coli in media containing various concentrations of 6-ACA; type: cell-based, Escherichia coli
# Method: E. coli was inoculated into media and grown in either aerobic (left and right bars) or anaerobic (middle bars) conditions. The cultures were grown for 48 hrs during the first trial and 30 hrs for a second trial under aerobic conditions (right bars).
# as §1
# E. coli [4] = test: Tolerance of E. coli cells resuspended in medium with various concentrations of 6-ACA (OD after overnight growth); type: cell-based, Escherichia coli; conditions: cells grown anaerobically to mid-log (0.3 OD) and early stationary phase (0.6 OD), resuspended in fresh M9-glucose medium, capped microfuge tubes
# Method: Midlog (OD600=0.3, lower dashed line) or early stationary (OD600=0.6, upper dashed line) cells were spun down and resuspended in fresh M9-Glucose medium with various concentrations of 6-ACA. After overnight growth, cultures were measured for growth by measuring OD600.
# as §1
# E. coli [5] = type: cell-based, Escherichia coli
# Method: FIG. 18, panels A and B, show the growth in various concentrations of 6-ACA with and without glycine betaine. Panel A. OD600 measurements of medium inoculated with midlog cultures of E. coli with various concentrations of 6-ACA with (right bars) and without (left bars) 2 mM glycine betaine. Panel B. Photograph showing the growth of same cultures in the anaerobic bottles.
# At high concentrations (>65 g/L) the osmolarity of 6-ACA is ˜0.5 M which may cause osmotic stress. To determine osmotic stress as the basis for 6-ACA growth inhibition, cultures were grown in various concentrations of 6-ACA with and without the osmoprotectant glycine betaine. […] Therefore much of the toxicity of 6-ACA is likely due to the osmotic stress. However, it should be noted that […] is similar to the amino acid lysine and could have a greater toxic effect in the cell cytoplasm vs. outside the cell.
# [6] = In vitro thiolase reactions with purified His-tagged thiolases, LC/MS analysis; type: biochemical; conditions: for Condensation of succinyl-CoA and acetyl-CoA into β-ketoadipyl-CoA: 0.5 μM purified thiolase, succinyl-CoA:acetyl-CoA 2:1, 30° C., 30 minutes, LC/MS; for Activities in the oxoadipyl-CoA forming direction: as summarised in Example XXVI
# Method: Succinyl-CoA and acetyl-CoA were added to His-tagged, purified thiolases at a ratio of 2:1 (succinyl-CoA:acetyl-CoA). Reactions were analyzed by LC/MS and quantified by comparison to a standard for acetoacetyl-CoA or peak area determined for 3-oxoadipyl-CoA (β-ketoadipyl-CoA).
# For example, the gene products encoded by pcaF in Pseudomonas strain B13 (Kaschabek et al., J. Bacteriol, 184(1): 207-15 (2002)), phaD in Pseudomonas putida U (Olivera et al., Proc Nall Acad Sci USA, 95(11), 6419-24 (1998)), paaE in Pseudomonas fluorescens ST (Di Gennaro et al., Arch Microbiol, 188(2), 117-25 (2007)), and paaJ from E. coli (Nogales et al., Microbiology, 153(Pt 2), 357-65 (2007)) catalyze the conversion of 3-oxoadipyl-CoA into succinyl-CoA and acetyl-CoA during the degradation of aromatic compounds such as phenylacetate or styrene.
# The genes were expressed in E. coli and the proteins purified using Ni-NTA spin columns and quantified. To assay enzyme activity in vitro, a […] CoA:DTNB (Ellman's reagent or 5,5′-dithiobis-(2-nitrobenzoic acid)) mixture was prepared. The mixture consisted of 10 mM succinyl-CoA, 5 mM acetyl-CoA, 30 mM DTNB in 100 mM Tris buffer, pH 7.4. […] of the CoA:DTNB mixture was added to 0.5 μM purified thiolase enzyme in 100 mM Tris buffer, pH 7.8 in a final volume of 50 μL. The reaction was incubated at 30° C. for 30 minutes, then quenched with 2.5 μL 10% formic acid and samples frozen at −20° C. until ready for analysis by LC/MS. Because many thiolases can condense two acetyl-CoA molecules into acetoaceytl-CoA, production of acetoacetyl-CoA was examined. […] These were fadAx from Pseudomonas putida, thiA from Clostridium acetobutylicum and thiB also from Clostridium acetobutylicum. […] There was excellent specificity between the thiolases.
# Sequence of Lysine decarboxylase (EC 4.1.1.18) (P0A9H3 whole entry): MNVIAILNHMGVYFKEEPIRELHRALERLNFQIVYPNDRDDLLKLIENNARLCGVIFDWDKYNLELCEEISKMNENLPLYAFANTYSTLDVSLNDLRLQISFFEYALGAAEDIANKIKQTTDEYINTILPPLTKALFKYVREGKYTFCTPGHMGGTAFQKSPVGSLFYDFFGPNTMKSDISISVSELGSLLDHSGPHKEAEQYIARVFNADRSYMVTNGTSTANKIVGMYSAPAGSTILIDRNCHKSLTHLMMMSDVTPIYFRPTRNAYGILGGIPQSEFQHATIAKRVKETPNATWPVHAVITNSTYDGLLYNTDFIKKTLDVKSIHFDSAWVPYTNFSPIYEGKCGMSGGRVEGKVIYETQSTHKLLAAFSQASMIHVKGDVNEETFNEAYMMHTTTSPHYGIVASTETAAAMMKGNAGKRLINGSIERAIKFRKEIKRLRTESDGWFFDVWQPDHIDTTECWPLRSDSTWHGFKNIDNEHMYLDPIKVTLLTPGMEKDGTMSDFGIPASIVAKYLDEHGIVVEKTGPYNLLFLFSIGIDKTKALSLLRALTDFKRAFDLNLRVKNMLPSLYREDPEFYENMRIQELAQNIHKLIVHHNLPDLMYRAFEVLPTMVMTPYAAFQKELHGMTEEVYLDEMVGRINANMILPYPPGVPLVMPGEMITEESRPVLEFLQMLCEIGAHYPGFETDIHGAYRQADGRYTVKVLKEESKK
Molecule,Inhibition of lysine decarboxylase [1],Condensation of succinyl-CoA and acetyl-CoA into β-ketoadipyl-CoA [6],Activities in the oxoadipyl-CoA forming direction [6],other results
NC(CCCCC(=O)O)C(=O)O (stereo not drawn) [2-Aminopimelate],competitive inhibitors,,,
"NCCCCCC(=O)O [6-ACA, 6-aminocaproic acid]",competitive inhibitors,,,Ethanol production (metabolic activity) in the presence of 6-ACA (E. coli [2]): closely tracked with OD; 6-ACA concentration in media in which cultures were able to grow (E. coli [3]; aerobic): up to 10%; 6-ACA concentration in media in which cultures could grow (E. coli [3]; anaerobic): approximately 6%; 6-ACA concentration in which cultures were able to grow (double at least 1 time) (E. coli [4]): up to 10%; 6-ACA concentration in medium allowing anaerobic growth (E. coli [5]): 4-6%
B1,,demonstrated the desired activity,significant and selective activities,
B2,,demonstrated the desired activity,,
B3,,demonstrated the desired activity,significant and selective activities,
